According to paper PMC3152597 (Bioorganic & medicinal chemistry, 2011):
“Also recorded” adds a separate entry of the source.

How the values were obtained:
[1] = system: two melanoma (A375, WM164) and four prostate cancer cell lines (LNCaP, PC-3, Du 145, PPC-1); experiment: Antiproliferative activity, all six cancer cell lines together; format: cell-based, human; conditions: for fold decrease in potency compared with parent compound: average IC50 versus parent ABI-I compound (1a, 1c); for IC50: Homo sapiens, read-out: IC50 values (range over the cancer cell lines)
[2] = In vitro metabolic stability, dog liver microsomes; format: in vitro ADME
[3] = system: Bovine brain tubulin; experiment: In vitro microtubule polymerization assay; format: biochemical; conditions: after 15 min, absorbance at 340 nm, 37 °C
[4] = In vitro metabolic stability, rat liver microsomes; conditions: 50 µM; LC-MS/MS metabolite identification
[5] = system: nonresistant cancer cell lines; experiment: Antiproliferative activity, nonresistant cancer cell lines; format: cell-based; conditions: Homo sapiens, read-out: potency on nonresistant cancer cell lines (range)
[6] = In vitro metabolic stability, mouse liver microsomes; conditions: 50 µM; LC-MS/MS metabolite identification
[7] = In vitro metabolic stability, human liver microsomes; conditions: 50 µM; LC-MS/MS metabolite identification
[8] = system: MDR cancer cell lines; experiment: Antiproliferative activity, MDR cancer cell lines; format: cell-based; conditions: Homo sapiens, read-out: potency on resistant (MDR) cancer cell lines (range)
[9] = system: DU145-TxR; experiment: Antiproliferative activity, paclitaxel-resistant DU145-TxR; format: cell-based, human
[10] = system: PC-3-TxR; experiment: Antiproliferative activity, paclitaxel-resistant PC-3-TxR; format: cell-based, human; conditions: IC50 on PC-3-TxR divided by IC50 on PC-3

Q: With `COc1cc(C(=O)c2c[nH]c(-c3ccc(C)cc3)n2)cc(OC)c1O` [2a, (4-Hydroxy-3,5-dimethoxyphenyl)(2-(p-tolyl)-1H-imidazol-4-yl)methanone] as the molecule, how does the “fold decrease in potency compared with parent compound” value (“fold decrease in potency” for short) [1] read?
A: 10-to 20 fold

Q: For `COc1cc(C(=O)c2c[nH]c(-c3ccc(Cl)cc3)n2)cc(OC)c1O` [2c, (2-(4-Chlorophenyl)-1H-imidazol-4-yl)(4-hydroxy-3,5-dimethoxyphenyl)methanone], which “fold decrease in potency” value [1] is on record?
A: 10-to 20 fold

Q: For `COc1cc(C(=O)c2cn(Cc3ccccc3)c(-c3ccc(C)cc3)n2)cc(OC)c1OC` [3aa, (1-Benzyl-2-(p-tolyl)-1H-imidazol-4-yl)(3,4,5-trimethoxyphenyl)methanone], which “fold decrease in potency” value [1] is on record?
A: 90 fold

Q: Which results are given for `COc1cc(C(=O)c2cn(C)c(-c3ccc(C)cc3)n2)cc(OC)c1OC` [3ab]?
A: half-life in dog liver microsomes (in words) ([2]; 0.5 µM compound, 1 mg/mL microsomal protein, 37 °C): slightly longer half-life than that of compound 1a; metabolic pathway in dog liver microsomes ([2]; 50 µM, LC-MS/MS metabolite identification): Hydroxylation on the para-methyl of the A ring was a major metabolic pathway; also recorded: O-demethylation was a minor metabolic pathway; inhibition of tubulin polymerization at 20 µM [3]: Complete inhibition; metabolic pathway in rat liver microsomes [4]: N-demethylation represented the major pathway; also recorded: Hydroxylation on the para-methyl of the A ring was a major metabolic pathway; also recorded: O-demethylation was a minor metabolic pathway; IC50 [5]: 50 to 80 nM; metabolic pathway in mouse liver microsomes [6]: Hydroxylation on the para-methyl of the A ring was a major metabolic pathway; also recorded: O-demethylation was a minor metabolic pathway; also recorded: N-demethylation represented the major pathway; metabolic pathway in human liver microsomes [7]: Hydroxylation on the para-methyl of the A ring was a major metabolic pathway; also recorded: Ketone reduction was only detected in human liver microsomes; also recorded: O-demethylation was a minor metabolic pathway; IC50 [8]: 50 to 80 nM

Q: For `COc1cc(C(=O)c2c[nH]c(-c3ccc(Br)cc3)n2)cc(OC)c1OC` [8a, (2-(4-Bromophenyl)-1H-imidazol-4-yl)(3,4,5-trimethoxyphenyl)methanone], which “inhibition of tubulin polymerization at 10 µM” value ([3]; 10 µM) is on record?
A: Complete inhibition

Q: What about the “inhibition of tubulin polymerization at 20 µM” value [3] of the same molecule?
A: Complete inhibition

Q: What about the IC50 [5] of the same molecule?
A: 50 to 80 nM

Q: And the IC50 [8]?
A: 50 to 80 nM

Q: And the “Resistance index (R) DU145-TxR” value ([9]; IC50 on DU145-TxR divided by IC50 on Du145)?
A: ≈ 1

Q: And the “Resistance index (R) PC-3-TxR” value [10]?
A: ≈ 1

Q: Which IC50 [1] does the source give for `COc1cc(C(=O)c2cc3cc(F)ccc3[nH]2)cc(OC)c1OC` [12f, (5-Fluoro-1H-indol-2-yl)(3,4,5-trimethoxyphenyl)methanone] here?
A: 1000 to 10000 nM

Q: For `COc1cc(C(=O)c2cc3ccc(Cl)cc3n2C)cc(OC)c1OC` [13aa, (6-Chloro-1-methyl-1H-indol-2-yl)(3,4,5-trimethoxyphenyl)methanone], which IC50 [1] is on record?
A: 1000 to 10000 nM

Q: Which IC50 [1] does the source give for `COc1cc(C(=O)c2cc3ccc(F)cc3n2C)cc(OC)c1OC` [13b, (6-Fluoro-1-methyl-1H-indol-2-yl)(3,4,5-trimethoxyphenyl)methanone] here?
A: 1000 to 10000 nM

Q: For `CC(=O)O[C@H]1C(=O)[C@@]2(C)[C@H]([C@H](OC(=O)c3ccccc3)[C@]3(O)C[C@H](OC(=O)[C@H](O)[C@@H](NC(=O)c4ccccc4)c4ccccc4)C(C)=C1C3(C)C)[C@]1(OC(C)=O)CO[C@@H]1C[C@@H]2O` [Paclitaxel, reference compound], which IC50 [8] is on record?
A: > 400 nM

Q: What about the IC50 ([9]; Homo sapiens, read-out: IC50±SEM DU145-TxR) of the same molecule?
A: > 3000 nM
